Test results taken from EP4005557A1, “METHOD FOR PREPARING NANOSYSTEMS” (Université de Genève, priority 2020, dated 2022).

Legend:
[1] = Contact angle measurement on a solid surface by sessile drop technique (wetting properties); type: physicochemical; settings: Table 3, voriconazole series
Procedure: The contact angles of voriconazole alone, glucose, voriconazole micelle formulation and voriconazole liposome formulation on a solid surface were measured by sessile drop technique using Lorentzen and […], type 28 optical tensiometer. The purpose of measuring the contact angle is to determine the wetting properties of the formulation. Higher contact angles correspond to poor wetting whereas lower contact angle correspond to good wetting properties. Micelles and liposomes of itraconazole have been prepared according to the method described in example 1. The contact angles of itraconazole alone, glucose, itraconazole micelle formulation and itraconazole liposome formulation on a solid surface were measured by sessile drop technique using Lorentzen and […], type 28 optical tensiometer.

[2] = drug alone; no method described; cited from earlier work

Contact angle [1]: 68.2°
SMILES: C[C@@H](c1ncncc1F)[C@](O)(Cn1cncn1)c1ccc(F)cc1F [Voriconazole]
Log P [2]: 1.75
